Results: patent publication US20120172302A1, “COMPOSITION FOR THE TREATMENT OF BENIGN PROSTATE HYPERPLASIA” (priority 2009, published 2012)
Square brackets hold non-standard residues; d marks the D form. Peptide text beside a SMILES is read from it. * marks the point of attachment. dPhe(4-NHCONH2) = NC(=O)Nc1ccc(C[C@@H](N)C(=O)O)cc1; Dihydroorotyl(S) = O=C1C[C@@H](C(=O)*)NC(=O)N1; dPhe(4-Cl) = N[C@H](Cc1ccc(Cl)cc1)C(=O)O; Phe(4-NH2) = Nc1ccc(C[C@H](N)C(=O)O)cc1; d2Nal = N[C@H](Cc1ccc2ccccc2c1)C(=O)O; Lys(iPr) = CC(C)NCCCC[C@H](N)C(=O)O; d3Pal = N[C@H](Cc1cccnc1)C(=O)O

What was measured:
patients with BPH = assay: IPSS global quality of life (QoL) question, clinical trial; type: in vivo, men; conditions: for Percentage of patients feeling delighted, pleased, or mostly satisfied (IPSS Global QoL scores 0-2) / Percentage of patients feeling unhappy or terrible (IPSS Global QoL scores 5 and 6): combined group
Description: For each patient, the following parameters were measured or assessed (using the methods discussed below), at time points of screening (e.g. −7 days) day 0 (“baseline”), day 14, day 28 and day 42:
After the initial 6-week treatment period of the exploratory study had been completed, a 12-month follow-up period looking at long-term efficacy commenced. Interim data of the main efficacy variables (IPSS, IPSS Global QoL, prostate volume, urinary flow, and post-void residual volume—measured as set out below) after 6 months' follow-up are also presented herein Table 1, 2, 3 FIG. 1b), together with some IPSS data at 9 and 12 months (FIG. 1b).
Included in the IPSS is one item to evaluate QoL (IPSS-global QoL). The Global QoL Question was developed alongside the IPSS and was officially included as part of the IPSS in 1993 when the WHO formally recommended the IPSS for both symptom and QoL assessment. […] This question assesses the degree to which patients find their symptoms bothersome. Patients are asked about how they would feel if they were to spend the rest of their lives with their prostate symptoms just as they are now. The choices for answering this quality of life question ranged from “delighted” (rating=0) to “terrible” (rating=6).

testosterone = assay: Serum testosterone concentration-time profile (LC-MS/MS), clinical trial; type: in vivo, men; conditions: for Lowest mean testosterone level: on Day 1
[1] = Month 6 follow-up, 32 mg group, n=7
[2] = Month 6 follow-up, 64 mg group, n=4
[3] = Month 6 follow-up, 16+16 mg group, n=6
[4] = Month 6 follow-up, 32+32 mg group, n=7

For `CC(=O)N[C@H](Cc1ccc2ccccc2c1)C(=O)N[C@H](Cc1ccc(Cl)cc1)C(=O)N[C@H](Cc1cccnc1)C(=O)N[C@@H](CO)C(=O)N[C@@H](Cc1ccc(NC(=O)[C@@H]2CC(=O)NC(=O)N2)cc1)C(=O)N[C@H](Cc1ccc(NC(N)=O)cc1)C(=O)N[C@@H](CC(C)C)C(=O)N[C@@H](CCCCNC(C)C)C(=O)N1CCC[C@H]1C(=O)N[C@H](C)C(N)=O` [Degarelix, D-Alaninamide, N-acetyl-3-(2-naphthalenyl)-D-alanyl-4-chloro-D-phenylalanyl-3-(3-pyridinyl)-D-alanyl-L-seryl-4-[[[(4S)-hexahydro-2,6-dioxo-4-pyrimidinyl]carbonyl]amino]-L-phenylalanyl-4-[(aminocarbonyl)amino]-D-phenylalanyl-L leucyl-N6-(1-methylethyl)-L-lysyl-L-prolyl] (Ac-[d2Nal][dPhe(4-Cl)][d3Pal]S[Phe(4-NH2)](Dihydroorotyl(S))[dPhe(4-NHCONH2)]L[Lys(iPr)]P[dA]-NH2), the “Mean IPSS global QoL score” value (patients with BPH; Baseline of 6-month follow-up patients, 32 mg group, n=7) was 2.8 (n = 7), the “Mean IPSS global QoL score” value (patients with BPH; Baseline of 6-month follow-up patients, 64 mg group, n=4) was 4.6 (n = 4) and the “Mean IPSS global QoL score” value (patients with BPH; Baseline of 6-month follow-up patients, 16+16 mg group, n=6) was 4.5 (n = 6). For the same compound, the “Mean IPSS global QoL score” value (patients with BPH; Baseline of 6-month follow-up patients, 32+32 mg group, n=7) was 4.3 (n = 7), the “Mean IPSS global QoL score” value (patients with BPH; Baseline, 32 mg group, N=12) was 3.8 (1.7) and the “Mean IPSS global QoL score” value (patients with BPH; Baseline, 64 mg group, N=13) was 4.7 (1.4). For the same compound, the “Mean IPSS global QoL score” value (patients with BPH; Baseline, 16+16 mg group, N=13) was 4.2 (1.1), the “Mean IPSS global QoL score” value (patients with BPH; Baseline, 32+32 mg group, N=12) was 4.3 (1.3) and the “IPSS global QoL mean change from baseline” value (“IPSS global QoL mean change” for short) (patients with BPH; Day 42, 32 mg group) was −2.1 (3.0). For the same compound, the “Mean IPSS global QoL score” value (patients with BPH; Day 42, 32 mg group) was 1.8 (2.0), the “IPSS global QoL mean change” value (patients with BPH; Day 42, 64 mg group) was −2.2 (1.6) and the “Mean IPSS global QoL score” value (patients with BPH; Day 42, 64 mg group) was 2.5 (1.3). The “IPSS global QoL mean change” value (patients with BPH; Day 42, 16+16 mg group) was −1.2 (1.4), the “Mean IPSS global QoL score” value (patients with BPH; Day 42, 16+16 mg group) was 2.9 (1.4) and the “IPSS global QoL mean change” value (patients with BPH; Day 42, 32+32 mg group) was −2.4 (1.9). The “Mean IPSS global QoL score” value (patients with BPH; Day 42, 32+32 mg group) was 1.9 (1.6), the “Percentage of patients feeling delighted, pleased, or mostly satisfied (IPSS Global QoL scores 0-2)” value (patients with BPH; Day 42) was 58% and the “Percentage of patients feeling unhappy or terrible (IPSS Global QoL scores 5 and 6)” value (patients with BPH; Day 42) was 12%. For the same compound, the “IPSS global QoL change from baseline” value (patients with BPH; [1]) was −1.4 (1.1), the “Mean IPSS global QoL score” value (patients with BPH; [1]) was 1.4 (1.5) and the “IPSS global QoL change from baseline” value (patients with BPH; [2]) was −0.8 (1.7). The “Mean IPSS global QoL score” value (patients with BPH; [2]) was 3.8 (1.3), the “IPSS global QoL change from baseline” value (patients with BPH; [3]) was −0.3 (0.5) and the “Mean IPSS global QoL score” value (patients with BPH; [3]) was 4.2 (1.5). For the same compound, the “IPSS global QoL change from baseline” value (patients with BPH; [4]) was −2.7 (2.1), the “Mean IPSS global QoL score” value (patients with BPH; [4]) was 1.6 (0.8) and the “Percentage of patients feeling delighted, pleased, or mostly satisfied (IPSS Global QoL scores 0-2)” value (patients with BPH; baseline) was 8%. For the same compound, the “Percentage of patients feeling unhappy or terrible (IPSS Global QoL scores 5 and 6)” value (patients with BPH; baseline) was 48%, the “Mean minimal value of testosterone (Cnadir)” value (testosterone; 32 mg group) was 0.9 ng/mL and the “Mean time for first return of testosterone to baseline interval after the first administration” value (testosterone; 32 mg group) was 9.1 (SD=5.2) days. The “Mean time of testosterone Cnadir (tnadir)” value (testosterone; 32 mg group) was 1.3 days, the “Number of patients with testosterone below the castration level 0.5 ng/mL at one or more time-points” value (testosterone; 32 mg group) was 3 patients and the “Percentage of patients with testosterone below the castration level 0.5 ng/mL at one or more time-points” value (testosterone; 32 mg group) was 25%. The “Testosterone greatest change from baseline” value (testosterone; 32 mg group) was -4.2 ng/mL, the “Lowest mean testosterone level” value (testosterone; 32 mg group) was 0.9 ng/mL and the “Mean area of testosterone concentrations below 0.5 ng/mL” value (testosterone; 32 mg group, range 0.0-0.1) was 0.0 ng·days/mL. For the same compound, the “Mean minimal value of testosterone (Cnadir)” value (testosterone; 64 mg group) was 0.4 ng/mL, the “Mean time of testosterone Cnadir (tnadir)” value (testosterone; 64 mg group) was 8.8 days and the “Number of patients with testosterone below the castration level 0.5 ng/mL at one or more time-points” value (testosterone; 64 mg group) was 9 patients. The “Percentage of patients with testosterone below the castration level 0.5 ng/mL at one or more time-points” value (testosterone; 64 mg group) was 69%, the “Testosterone greatest change from baseline” value (testosterone; 64 mg group) was -4.7 ng/mL and the “Number of patients still below testosterone 0.5 ng/mL on Day 42” value (testosterone; 64 mg group, of the 8 patients with testosterone <=0.5 ng/mL) was “Five”. For the same compound, the “Lowest mean testosterone level” value (testosterone; 64 mg group) was 0.4 ng/mL, the “Mean area of testosterone concentrations below 0.5 ng/mL” value (testosterone; 64 mg group, range 0.0-15.2) was 4.4 ng·days/mL and the “Time for testosterone level to recover above 0.5 ng/mL” value (testosterone; 64 mg group, the other three of 8 patients) was ≤ 5 days.
